Test results published in PubChem BioAssay AID200 (DTP/NCI, 2004).
Where “and” joins values, the source holds several entries; their conditions need not be identical. Identical values can stand only once. Toxic doses and inconclusive results are not listed. Where a SMILES comes first, the peptide text is derived from it. The star is where a group is joined. Cbz = O=C(OCc1ccccc1)*

Tested on: B6C3F1 mice, B16 melanoma ip, median survival T/C
Experiment: NCI In Vivo Anticancer Drug Screen. Data for tumor model B16 Melanoma (intraperitoneal) in B6C3F1 mice
Settings: endpoint: median survival time, schedule: Q01DX009 (ip), higher = longer survival
In short: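 Transplantable tumor in mice; treated vs vehicle control groups; survival or tumor size measured; value = T/C ratio.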

[1] = dose: 25.0 mg/kg/injection, vehicle: saline
[2] = dose: 50.0 mg/kg/injection, vehicle: saline
[3] = dose: 6.25 mg/kg/injection, vehicle: Klucel (hydroxypropylcellulose) (HPC)
[4] = dose: 12.5 mg/kg/injection, vehicle: Klucel (hydroxypropylcellulose) (HPC)
[5] = dose: 25.0 mg/kg/injection, vehicle: Klucel (hydroxypropylcellulose) (HPC)
[6] = dose: 50.0 mg/kg/injection, vehicle: Klucel (hydroxypropylcellulose) (HPC)
[7] = dose: 100.0 mg/kg/injection, vehicle: Klucel (hydroxypropylcellulose) (HPC)
[8] = dose: 200.0 mg/kg/injection, vehicle: Klucel (hydroxypropylcellulose) (HPC)
[9] = dose: 50.0 mg/kg/injection, vehicle: saline with Tween-80
[10] = dose: 100.0 mg/kg/injection, vehicle: saline with Tween-80
[11] = dose: 200.0 mg/kg/injection, vehicle: saline with Tween-80
[12] = dose: 25.0 mg/kg/injection, vehicle: saline with Tween-80

For `COc1cc(C2c3cc4c(cc3[C@@H](OC3OC5CO[C@@H](C)OC5C(O)C3O)[C@H]3COC(=O)C23)OCO4)cc(OC)c1OC` (stereo partly drawn), the T/C (dose: 21.6 mg/kg/injection, vehicle: suspension in saline) was 120 % of control, the T/C [1] was 150 % of control and the T/C [2] was 160 % of control. The T/C (dose: 60.0 mg/kg/injection, vehicle: suspension in saline) was 162 % of control, the T/C (dose: 100.0 mg/kg/injection, vehicle: saline) was 193 % of control and the T/C (dose: 100.0 mg/kg/injection, vehicle: suspension in saline) was 183 % of control.

In the case of `CC(=O)O[C@H]1C(=O)[C@@]2(C)C(C(OC(=O)c3ccccc3)[C@]3(O)CC(OC(=O)[C@H](OC(=O)CCC(=O)O)C(NC(=O)c4ccccc4)c4ccccc4)C(C)=C1C3(C)C)C1(OC(C)=O)COC1C[C@@H]2OC(=O)CCC(=O)O` (stereo partly drawn), the T/C (dose: 2.75 mg/kg/injection, vehicle: sodium bicarbonate) is reported as 109 % of control, the T/C (dose: 2.75 mg/kg/injection, vehicle: water) is reported as 120 % of control and the T/C (dose: 5.5 mg/kg/injection, vehicle: sodium bicarbonate) is reported as 113 % of control. For the same molecule, the T/C (dose: 5.5 mg/kg/injection, vehicle: water) was 114 % of control, the T/C (dose: 11.0 mg/kg/injection, vehicle: sodium bicarbonate) was 124 % of control and the T/C (dose: 22.0 mg/kg/injection, vehicle: sodium bicarbonate) was 105 % of control. The T/C (dose: 22.0 mg/kg/injection, vehicle: water) was 109 % of control, the T/C (dose: 44.0 mg/kg/injection, vehicle: sodium bicarbonate) was 114 % of control and the T/C (dose: 44.0 mg/kg/injection, vehicle: water) was 166 % of control.

In the case of `CC(C)N1C(=O)N(Cl)C2C1N(Cl)C(=O)N2Cl` (stereo not drawn), the T/C (dose: 1.5 mg/kg/injection, vehicle: saline with Tween-80) is reported as 108 % of control, the T/C (dose: 3.0 mg/kg/injection, vehicle: saline with Tween-80) is reported as 104 % of control and the T/C (dose: 6.0 mg/kg/injection, vehicle: saline with Tween-80) is reported as 98 % of control. For the same molecule, the T/C (dose: 12.0 mg/kg/injection, vehicle: saline with Tween-80) was 94 % of control and the T/C (dose: 24.0 mg/kg/injection, vehicle: saline with Tween-80) was 108 % of control.

With `Cc1ccccc1N=C(c1ccccc1)C1C(=O)c2ccccc2C1=O` the T/C (dose: 50.0 mg/kg/injection, vehicle: DMSO) was 101 % of control, the T/C (dose: 100.0 mg/kg/injection, vehicle: DMSO) was 106 % of control and the T/C (dose: 200.0 mg/kg/injection, vehicle: DMSO) was 116 % of control. For the same molecule, the T/C (dose: 400.0 mg/kg/injection, vehicle: DMSO) was 108 % of control and the T/C (dose: 800.0 mg/kg/injection, vehicle: DMSO) was 101 % of control.

With `CCN(CC)CCCNc1nccc2c(C)c3[nH]c4ccncc4c3cc12` the T/C (dose: 0.38 mg/kg/injection, vehicle: other) was 176 % of control, the T/C (dose: 0.75 mg/kg/injection, vehicle: other) was 170 % of control and the T/C (dose: 1.5 mg/kg/injection, vehicle: other) was 180 % of control. The T/C (dose: 3.0 mg/kg/injection, vehicle: other) was 202 % of control and the T/C (dose: 6.0 mg/kg/injection, vehicle: other) was 257 % of control.

For `CCOC(=O)C(Cc1ccc(O)cc1)NC(=O)c1ccccc1` (stereo not drawn), the T/C (dose: 40.0 mg/kg/injection, vehicle: saline with Tween-80) was 116 % of control, the T/C (dose: 80.0 mg/kg/injection, vehicle: saline with Tween-80) was 96 % of control and the T/C (dose: 160.0 mg/kg/injection, vehicle: saline with Tween-80) was 112 % of control. The T/C (dose: 320.0 mg/kg/injection, vehicle: saline with Tween-80) was 96 % of control and the T/C (dose: 640.0 mg/kg/injection, vehicle: saline with Tween-80) was 101 % of control.

With `O=C([O][Bi]([c]1ccccc1)[c]1ccccc1)c1ccccc1` the T/C [3] was 101 % of control, the T/C [4] was 96 % of control and the T/C [5] was 88 % of control.

In the case of `COC1C(CO)OC(n2cnc3c(=S)nc(N)[nH]c32)C1O` (stereo not drawn), the T/C [6] is reported as 116 % of control and the T/C [7] is reported as 114 % of control.

In the case of `CC(C)(C)OC(=O)NC(Cc1ccc(O)cc1)C(=O)ON1C(=O)CCC1=O` (stereo not drawn), the T/C [7] is reported as 101 % of control and the T/C [8] is reported as 96 % of control.

In the case of `CCC(C)C(NC(=O)OCc1ccccc1)C(=O)NC(C(=O)O)C(C)C` (stereo not drawn) (Cbz-Ile-Val-OH; configuration not given here), the T/C [7] is reported as 91 % of control, the T/C [8] is reported as 94 % of control and the T/C (dose: 400.0 mg/kg/injection, vehicle: Klucel (hydroxypropylcellulose) (HPC)) is reported as 94 % of control.

For `CN=C(N)c1ccc(N=C(N)c2ccc(C(N)=Nc3ccc(C(N)=NC)cc3)cc2)cc1`, the T/C (dose: 7.5 mg/kg/injection, vehicle: saline) was 95 % of control and the T/C (dose: 15.0 mg/kg/injection, vehicle: saline) was 89 % of control.

`CCOC(=O)c1ccc(NN=NCCF)cc1` was tested, and the T/C (dose: 3.0 mg/kg/injection, vehicle: distilled water + Tween-80) was 123 % of control and 102 % of control, the T/C (dose: 3.12 mg/kg/injection, vehicle: distilled water + Tween-80) was 123 % of control and the T/C (dose: 6.0 mg/kg/injection, vehicle: distilled water + Tween-80) was 112 % of control and 98 % of control. The T/C (dose: 12.0 mg/kg/injection, vehicle: distilled water + Tween-80) was 87 % of control and 103 % of control, the T/C (dose: 12.5 mg/kg/injection, vehicle: distilled water + Tween-80) was 155 % of control and the T/C (dose: 24.0 mg/kg/injection, vehicle: distilled water + Tween-80) was 108 % of control and 101 % of control. The T/C (dose: 25.0 mg/kg/injection, vehicle: distilled water + Tween-80) was 198 % of control and the T/C (dose: 48.0 mg/kg/injection, vehicle: distilled water + Tween-80) was 96 % of control and 102 % of control.

For `Cc1cc2nc(Cc3nc4cc(C)c(C)cc4[nH]3)[nH]c2cc1C`, the T/C [9] was 94 % of control, the T/C [10] was 93 % of control and the T/C [11] was 88 % of control.

For `Cc1ccc2c(c1)C1(C)OC(C=CC1=O)O2` (stereo not drawn), the T/C (dose: 3.12 mg/kg/injection, vehicle: Klucel (hydroxypropylcellulose) (HPC)) was 104 % of control, the T/C [3] was 115 % of control and the T/C [4] was 104 % of control. For the same molecule, the T/C [5] was 112 % of control and 105 % of control.

For `Cn1ccc(=Nc2ccc(NC(=O)c3ccc(N=c4ccn(C)c5ccc([N+](=O)[O-])cc45)cc3[N+](=O)[O-])cc2)cc1`, the T/C (dose: 12.5 mg/kg/injection, vehicle: saline with Tween-80) was 105 % of control, the T/C [12] was 93 % of control and the T/C [9] was 91 % of control. The T/C [10] was 94 % of control, the T/C [11] was 96 % of control and the T/C (dose: 400.0 mg/kg/injection, vehicle: saline with Tween-80) was 96 % of control.

`CC(C)(C)SCC(NC(=O)OCC1c2ccccc2-c2ccccc21)C(=O)O` (stereo not drawn) was tested, and the T/C [5] was 91 % of control, the T/C [6] was 97 % of control and the T/C [7] was 91 % of control and 92 % of control.

For `CCCCCCCCCCCCCCCC(=O)Nc1ccn(C2OC(CO)C(O)C2O)c(=O)n1` (stereo not drawn), the T/C (dose: 6.25 mg/kg/injection, vehicle: saline) was 98 % of control, the T/C [1] was 157 % of control and the T/C [2] was 180 % of control.

With `O=C(Oc1ccccc1)c1cc(O)c(O)c(O)c1` the T/C [12] was 98 % of control, the T/C [9] was 97 % of control and the T/C [10] was 97 % of control. The T/C [11] was 87 % of control.

`CC1=CC2C(O)(CC(CO)=CC3C4C(C)(C)C4(OC(=O)c4ccccc4)C(OC(=O)c4ccccc4)C(C)C32O)C1=O` (stereo not drawn) was tested, and the T/C (dose: 0.13 mg/kg/injection, vehicle: saline with Tween-80) was 98 % of control, the T/C (dose: 0.25 mg/kg/injection, vehicle: saline with Tween-80) was 90 % of control and the T/C (dose: 0.5 mg/kg/injection, vehicle: saline with Tween-80) was 93 % of control. The T/C (dose: 1.0 mg/kg/injection, vehicle: saline with Tween-80) was 95 % of control and the T/C (dose: 2.0 mg/kg/injection, vehicle: saline with Tween-80) was 90 % of control.
